In the supplement of paper PMC10307832:

Key:
Test in all cases: relative viability (nuclei count vs DMSO), 5 days (fraction); higher = more cells survive
[1] = compound: CC(=O)O[C@@]12CO[C@@H]1C[C@H](O)[C@@]1(C)C(=O)[C@H](O)C3=C(C)[C@@H](OC(=O)[C@H](O)[C@@H](NC(=O)OC(C)(C)C)c4ccccc4)C[C@@](O)([C@@H](OC(=O)c4ccccc4)[C@H]21)C3(C)C [Docetaxel]
Outline: (§1)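 Cells of lung cancer lines were placed in 1536-well plates and kept overnight at 37 °C. Pinning then delivered five library-drug doses (not always all listed), spaced by √10, onto plates anchored with vehicle, and the cells were left 5 days without changing medium. One step fixed, permeabilised and stained them with Hoechst, and MetaXpress counted nuclei in 4× images. Viability, as a median over plates, is treated-well nuclei divided by vehicle-well nuclei, with acceptance only at control CV below 25% and at least one doubling.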

[2] = compound: COc1cc2nccc(Oc3ccc(NC(=O)Nc4cc(C)on4)c(Cl)c3)c2cc1OC [Tivozanib]
Outline: as §1

[3] = compound: Cc1cnc(-c2cnc(NCCNc3ccc(C#N)cn3)nc2-c2ccc(Cl)cc2Cl)[nH]1
Outline: as §1

[4] = compound: Cc1sc2c(c1C)C(c1ccc(Cl)cc1)=N[C@@H](CC(=O)OC(C)(C)C)c1nnc(C)n1-2 [JQ1]
Outline: as §1

[5] = compound: Nc1ccn([C@@H]2O[C@H](CO)[C@@H](O)[C@@H]2O)c(=O)n1 [Cytarabine]
Outline: as §1

[6] = compound: O=C(O)CCCCC(CCSCc1ccccc1)SCc1ccccc1 [CPI-613]
Outline: as §1

[7] = compound: O=c1[nH]c2ccccc2n1C1CCN(CCCC(c2ccc(F)cc2)c2ccc(F)cc2)CC1 [Pimozide]
Outline: as §1

Cell Line | relative viability ([1]; 0.0002 µM) | relative viability ([1]; 0.000632 µM) | relative viability ([1]; 0.002 µM) | relative viability ([1]; 0.006325 µM) | relative viability ([1]; 0.02 µM) | relative viability ([2]; 0.005 µM) | relative viability ([2]; 0.01581 µM) | relative viability ([2]; 0.05 µM) | relative viability ([2]; 0.1581 µM) | relative viability ([2]; 0.5 µM) | relative viability ([3]; 0.08 µM) | relative viability ([3]; 0.253 µM) | relative viability ([3]; 0.8 µM) | relative viability ([3]; 2.53 µM) | relative viability ([4]; 0.04 µM) | relative viability ([4]; 0.1265 µM) | relative viability ([4]; 0.4 µM) | relative viability ([4]; 1.265 µM) | relative viability ([4]; 4 µM) | relative viability ([5]; 0.005 µM) | relative viability ([5]; 0.01581 µM) | relative viability ([5]; 0.05 µM) | relative viability ([5]; 0.1581 µM) | relative viability ([5]; 0.5 µM) | relative viability ([6]; 5 µM) | relative viability ([6]; 15.81 µM) | relative viability ([6]; 50 µM) | relative viability ([6]; 158.11 µM) | relative viability ([6]; 500 µM) | relative viability ([7]; 0.08 µM) | relative viability ([7]; 0.253 µM) | relative viability ([7]; 0.8 µM) | relative viability ([7]; 2.53 µM) | relative viability ([7]; 8 µM)
NCI-H647 | 0.739 | 0.43 | 0.209 | 0.148 | 0.0799 | 0.843 | 0.98 | 0.981 | 0.844 | 0.826 | 1.06 | 0.862 | 0.931 | 0.934 | 0.894 | 0.569 | 0.527 | 0.292 | 0.121 | 0.63 | 0.323 | 0.265 | 0.111 | 0.0762 | 0.913 | 0.778 | 0.871 | 0.499 | 0.239 | 0.91 | 0.981 | 0.848 | 0.857 | 0.806
NCI-H838 | 0.937 | 0.867 | 0.393 | 0.197 | 0.175 | 0.957 | 0.969 | 1.01 | 0.736 | 0.979 | 0.999 | 0.93 | 1.05 | 1.16 | 0.961 | 0.59 | 0.792 | 0.436 | 0.343 | 0.97 | 0.964 | 0.743 | 0.423 | 0.293 | 0.948 | 0.864 | 0.883 | 0.649 | 0.0946 | 0.953 | 0.998 | 0.93 | 0.927 | 0.959
ABC-1 | 0.853 | 0.817 | 0.472 | 0.343 | 0.24 | 0.849 | 0.919 | 1 | 0.793 | 0.412 | 0.881 | 0.682 | 0.896 | 0.904 | 0.947 | 0.657 | 0.691 | 0.572 | 0.444 | 0.907 | 0.883 | 0.808 | 0.732 | 0.582 | 1.05 | 0.802 | 1.04 | 0.469 | 0.226 | 0.811 | 1.05 | 0.959 | 0.897 | 0.698
ChaGo-K-1 | 1 | 0.691 | 0.636 | 0.349 | 0.196 | 0.979 | 0.956 | 0.97 | 0.909 | 0.921 | 0.987 | 0.854 | 1.02 | 0.939 | 0.93 | 0.845 | 0.956 | 0.901 | 0.743 | 0.687 | 0.681 | 0.509 | 0.383 | 0.283 | 0.918 | 0.981 | 0.975 | 0.705 | 0.411 | 1.08 | 0.95 | 0.975 | 0.96 | 0.961
NCI-H2342 | 1.04 | 0.818 | 0.692 | 0.619 | 0.484 | 0.88 | 0.948 | 0.886 |  | 0.987 | 1.13 | 0.794 | 0.952 | 0.903 | 1.17 | 0.775 | 0.993 | 0.943 | 0.756 | 0.909 | 0.878 | 0.793 | 0.744 | 0.608 | 0.929 | 1.01 | 1.07 | 0.97 | 1.07 | 1.01 | 0.876 | 0.912 | 0.863 | 0.995
NCI-H520 | 0.853 | 0.973 | 0.489 | 0.277 | 0.169 | 0.906 | 0.922 | 0.884 | 0.684 | 0.859 | 1.04 | 1 | 1.03 | 1.07 | 0.954 | 1.07 | 0.905 | 0.533 | 0.458 | 0.94 | 1.04 | 1.13 | 0.741 | 0.657 | 1.05 | 0.952 | 1.04 | 0.77 | 0.139 | 0.993 | 0.978 | 0.903 | 0.96 | 0.972
NCI-H2085 | 0.968 | 0.987 | 0.746 | 0.504 | 0.373 | 0.982 | 1 | 1.02 | 0.936 | 0.982 | 1.04 | 0.933 | 0.995 | 1.02 | 1.01 | 0.891 | 0.867 | 0.622 | 0.537 | 0.965 | 0.929 | 0.868 | 0.808 | 0.801 | 0.987 | 0.935 | 0.935 | 0.82 | 0.246 | 0.973 | 1.01 | 0.957 | 1.02 | 0.881
LK-2 | 0.921 | 0.771 | 0.27 | 0.208 | 0.144 | 1.05 | 0.962 | 0.937 | 0.834 | 0.784 | 1.14 | 0.941 | 0.995 | 1.15 | 0.942 | 0.907 | 0.497 | 0.236 | 0.218 | 0.797 | 0.604 | 0.414 | 0.259 | 0.212 | 0.943 | 0.953 | 1.16 | 1 | 0.929 | 0.965 | 0.93 | 0.843 | 0.808 | 1.06
Calu-6 | 1.01 | 0.892 | 0.28 | 0.157 | 0.109 | 0.955 | 1.02 | 1.04 | 1.08 | 0.943 | 1 | 0.951 | 0.969 | 0.908 | 0.951 | 0.804 | 0.933 | 0.593 | 0.425 | 0.93 | 0.865 | 0.714 | 0.462 | 0.313 | 0.978 | 0.999 | 0.913 | 0.722 | 0.545 | 1.05 | 1.01 | 0.974 | 0.991 | 0.897
